From US20240228469A1, “PCSK9 INHIBITORS AND METHODS OF USE THEREOF” (AstraZeneca AB, priority 2022, published 2024)

Columns and labels:
[1] = biological target: GSK3β (Glycogen synthase kinase-3 beta) (Homo sapiens, UniProt P49841); assay: Assay 6 GSK3β assay (ThermoFisher Z-Lyte FRET); format: biochemical; settings: ATP Conc: 10 μM, geometric mean; read-out: Assay 6 (GSK3β FRET-Z-Lyte Cr) GMean IC50
Summary of the method: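 Z-Lyte FRET: 0.22-0.92 ng kinase with 2 μM Ser/Thr 09 peptide in HEPES pH 7.5, MgCl2, EGTA, 60 min at room temperature, then 60 min development. Compounds in 1% DMSO, 10-point 3-fold series from 10 μM; sigmoidal dose-response fit.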

[2] = biological target: PCSK9 (Homo sapiens, UniProt Q8NBP7); assay: Assay 2 Biophysical human PCSK9 assay (SPR, Biacore); format: binding; set-up: biotinylated human PCSK9 (31-692)-Avi-His6; His6 (C); settings: single-cycle kinetics, 30° C., geometric mean, read-out: Assay 2 (PCSK9 BIAcore DBA Cr) GMean Kd
PCSK9, sequence (Q8NBP7 31-692): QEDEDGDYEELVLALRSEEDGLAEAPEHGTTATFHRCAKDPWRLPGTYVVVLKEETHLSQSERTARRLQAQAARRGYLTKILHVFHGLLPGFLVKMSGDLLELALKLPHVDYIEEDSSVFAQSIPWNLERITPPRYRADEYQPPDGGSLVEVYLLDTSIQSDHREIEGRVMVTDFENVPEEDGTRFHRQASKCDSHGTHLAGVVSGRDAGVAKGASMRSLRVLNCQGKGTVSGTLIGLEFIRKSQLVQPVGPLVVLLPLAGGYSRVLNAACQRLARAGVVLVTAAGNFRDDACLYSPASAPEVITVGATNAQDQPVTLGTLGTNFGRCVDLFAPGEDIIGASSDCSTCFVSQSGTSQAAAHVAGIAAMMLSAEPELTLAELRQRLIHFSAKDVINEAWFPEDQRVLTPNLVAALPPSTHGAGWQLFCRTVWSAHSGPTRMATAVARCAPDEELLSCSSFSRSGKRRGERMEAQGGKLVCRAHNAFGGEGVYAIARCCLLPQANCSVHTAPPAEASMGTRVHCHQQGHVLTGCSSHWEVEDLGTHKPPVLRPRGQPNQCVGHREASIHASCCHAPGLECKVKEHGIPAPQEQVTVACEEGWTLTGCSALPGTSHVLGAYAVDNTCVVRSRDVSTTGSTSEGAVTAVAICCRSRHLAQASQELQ

GSK3β (Glycogen synthase kinase-3 beta), sequence (P49841 whole entry): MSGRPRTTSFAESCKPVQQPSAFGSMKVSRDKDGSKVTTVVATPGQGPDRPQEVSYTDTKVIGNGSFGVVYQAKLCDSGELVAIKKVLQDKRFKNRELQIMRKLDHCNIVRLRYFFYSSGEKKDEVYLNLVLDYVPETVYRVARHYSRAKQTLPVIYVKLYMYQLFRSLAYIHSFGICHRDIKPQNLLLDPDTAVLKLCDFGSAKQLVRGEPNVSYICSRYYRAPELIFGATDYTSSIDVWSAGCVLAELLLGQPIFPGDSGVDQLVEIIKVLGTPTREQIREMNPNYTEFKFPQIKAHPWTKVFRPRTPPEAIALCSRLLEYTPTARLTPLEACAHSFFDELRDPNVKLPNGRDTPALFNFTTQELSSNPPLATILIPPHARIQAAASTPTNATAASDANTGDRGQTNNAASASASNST

| Structure (SMILES) | IC50 [1] | Kd [2] |
| --- | --- | --- |
| Cc1cnc(N[C@H]2CC[C@H](Nc3ccc(-n4cccc(Cl)c4=O)cn3)C2)nn1 [Example 129, 3-Chloro-6′-(((1S,3S)-3-((6-methyl-1,2,4-triazin-3-yl)amino)cyclopentyl)amino)-2H-[1,3′-bipyridin]-2-one] | 4850 nM | 1.3 nM |
| Cc1cnc(N[C@H]2CC[C@H](Nc3ccc(-n4cccc(C)c4=O)cn3)C2)nn1 [Example 131, 3-Methyl-6′-(((1S,3S)-3-((6-methyl-1,2,4-triazin-3-yl)amino)cyclopentyl)amino)-2H-[1,3′-bipyridin]-2-one] | > 10000 nM | 2.4 nM |
| COc1cccn(-c2ccc(N[C@H]3CC[C@H](Nc4ncc(C)nn4)C3)nc2)c1=O [Example 132, 3-Methoxy-6′-(((1S,3S)-3-((6-methyl-1,2,4-triazin-3-yl)amino)cyclopentyl)amino)-2H-[1,3′-bipyridin]-2-one] | 2060 nM | 1.5 nM |
| COc1ccc(=O)n(-c2ccc(N[C@H]3CC[C@H](Nc4ncc(C)nn4)C3)nc2)c1 [Example 133, 5-Methoxy-6′-(((1S,3S)-3-((6-methyl-1,2,4-triazin-3-yl)amino)cyclopentyl)amino)-2H-[1,3′-bipyridin]-2-one] | 32 nM | 17 nM |
| Cc1cnc(N[C@H]2CC[C@H](Nc3ccc(-n4cc(Cl)ccc4=O)cn3)C2)nn1 [Example 134, 5-Chloro-6′-(((1S,3S)-3-((6-methyl-1,2,4-triazin-3-yl)amino)cyclopentyl)amino)-2H-[1,3′-bipyridin]-2-one] | 439 nM | 9.1 nM |
| Cc1cnc(N[C@H]2CC[C@H](Nc3ccc(-n4cccc(C(F)(F)F)c4=O)cn3)C2)nn1 [Example 135, 6′-(((1S,3S)-3-((6-Methyl-1,2,4-triazin-3-yl)amino)cyclopentyl)amino)-3-(trifluoromethyl)-2H-[1,3′-bipyridin]-2-one] | > 10000 nM | 3.9 nM |
| Cc1cnc(N[C@H]2CC[C@H](Nc3ccc(-n4cccc(OC(F)F)c4=O)cn3)C2)nn1 [Example 187, 3-(Difluoromethoxy)-6′-(((1S,3S)-3-((6-methyl-1,2,4-triazin-3-yl)amino)cyclopentyl)amino)-2H-[1,3′-bipyridin]-2-one] | 3780 nM | 3.7 nM |
| Cc1cnc(N[C@H]2CC[C@H](Nc3ccc(-n4c(=O)ccc5cccnc54)cn3)C2)nn1 [Example 197, 1-(6-(((1S,3S)-3-((6-Methyl-1,2,4-triazin-3-yl)amino)cyclopentyl)amino)pyridin-3-yl)-1,8-naphthyridin-2(1H)-one] | > 10000 nM | 2.3 nM |
| Cc1cnc(N[C@H]2CC[C@H](Nc3ccc(-n4cccc(-c5cnn(C)c5)c4=O)cn3)C2)nn1 [Example 198, 6′-(((1S,3S)-3-((6-Methyl-1,2,4-triazin-3-yl)amino)cyclopentyl)amino)-3-(1-methyl-1H-pyrazol-4-yl)-2H-[1,3′-bipyridin]-2-one] | > 10000 nM | 3.8 nM |
| Cc1cnc(N[C@H]2CC[C@H](Nc3ccc(-n4c(=O)n(C)c5ccc(C#N)cc54)cn3)C2)nn1 [Example 210, 1-Methyl-3-(6-(((1S,3S)-3-((6-methyl-1,2,4-triazin-3-yl)amino)cyclopentyl)amino)pyridin-3-yl)-2-oxo-2,3-dihydro-1H-benzo[d]imidazole-5-carbonitrile] | > 10000 nM | 0.6 nM |
| Cc1cnc(N[C@H]2CC[C@H](Nc3ccc(-n4c(=O)n(C)c5cccnc54)cn3)C2)nn1 [Example 212, 1-Methyl-3-(6-(((1S,3S)-3-((6-methyl-1,2,4-triazin-3-yl)amino)cyclopentyl)amino)pyridin-3-yl)-1,3-dihydro-2H-imidazo[4,5-b]pyridin-2-one] | > 10000 nM | 1.7 nM |
| Cc1cnc(N[C@H]2CC[C@H](Nc3ccc(-n4nccc(Cl)c4=O)cn3)C2)nn1 [Example 221, 4-Chloro-2-(6-(((1S,3S)-3-((6-methyl-1,2,4-triazin-3-yl)amino)cyclopentyl)amino)pyridin-3-yl)pyridazin-3(2H)-one] | > 10000 nM | 1.7 nM |
